Entries after “also recorded” stand apart in the source; their conditions may differ.
Assays:
[1] = system: adenylyl cyclase V/VI; experiment: Adenylyl cyclase V/VI expression (western blot) in CLP mice; format: in vivo, mouse; details: SDG following CLP
Procedure: Mice were either sham treated (n=3) or subjected to cecal ligation puncture (CLP, n=6). SDG was administered to three mice following CLP.

[2] = system: AC16 cells; experiment: Mitochondrial number (Mitotracker Red) in LPS-treated AC16 cells; format: cell-based, human
Procedure: AC16 cells were either left untreated or treated for 12 hours with Liposaccharide (LPS) in the absence or presence of SDG, and mitochondria were stained.
To assess changes in the mitochondrial number, LPS stimulated AC16 cells and adult cardiomyocytes isolated 12 hours post-CLP were stained with 200 nM Mitotracker Red (M22425, Molecular Probes), and incubated for 30 minutes in the dark. Excess Mitotracker Red was removed with three washed of PBS solution. Mitotracker Red fluorescence was recorded at 581 (excitation) and 644 nm (emission).

[3] = system: adult cardiomyocytes isolated from septic mice; experiment: Seahorse oxygen consumption rate in cardiomyocytes isolated from septic mice; format: in vivo, mouse
Procedure: Mice were either sham treated or subjected to cecal ligation puncture followed by SDG treatment. The oxygen consumption rate (OCR) was measured in a seahorse assay.
Adult mouse cardiomyocytes isolation—Adult mouse cardiomyocytes (ACMs) were isolated from ventricles of C57BL/6 mice 12 hours post-sham surgery, CLP surgery or combined performance of CLP and treatment with LGM2605 at 6 hours post-surgery. Hearts from heparinized mice (90 USP; ip) were cannulated through the aorta. Hearts were perfused with perfusion buffer (120.4 mMNaCl, 14.7 mM KCL, 0.6 mM NaH2PO4, 0.6 mM KH2PO4, 1.2 mM MgSO4, 10 mM Hepes, 4.6 mM NaHCO3, 30 mMtaurine, 10 mM BDM, 5.5 mM glucose; pH 7.4) for 3 min followed by digestion with perfusion buffer containing 19250 units Collagenese type II (Worthington), 5-6 mg trypsin and 0.02 mM CaCl2 for 7 min. Ventricles were gently teared into small pieces, perfusion buffer containing 5 mg/ml BSA and 0.125 mM CaCl2 was added and filtered with 100 μm nylon. The filtrate was pelleted by gravity for 5 min, centrifuged for 30 sec at 700 rpm and the pellet resuspended in perfusion buffer containing 5 mg/ml BSA and 0.225 mM CaCl2. The cells were pelleted by gravity for 10 min, centrifuged for 30 sec at 700 rpm and the pellet resuspended in perfusion buffer containing 5 mg/ml BSA and 0.525 mM CaCl2.
Seahorse analysis—Isolated primary ACMs were counted with Hematocytometer. Dead cells were detected with Trypan Blue Dye staining. Cells were platted (3000 cells per well) in XF96 Seahorse® plates pre-coated with laminin with 20 μg/ml laminin (Invitrogen, 23017). In order to assess oxygen consumption rates (OCR) for fatty acid oxidation (FAO) recordings, cells were incubated in substrate limited medium (DMEM containing 10 mM Glucose, 1.025 mM CaCl2, 0.5 mM carnitine, pH=7.4) and assayed with fatty acid oxidation medium as per manufacturer's protocol. Before starting the assay, 1 mM palmitate conjugated with BSA was added in each well. Drugs used for maximal response during fatty acid oxidation were: Oligomycin (3 μM) (Sigma, 04875) which blocks complex V, FCCP (2 μM) (Sigma, C2920) that leads to the collapse of the proton gradient, and Rotenone/Antimycin A (0.5 μM) (Sigma, A8674)/(Sigma, R8875) where rotenone blocks complex I and antimycin A blocks complex III. The pre-hydrated with XF assay calibrant, XF cartridges were filled with the drugs and the cartridge was calibrated for 30 minutes in Seahorse Analyzer. All experiments were performed at 37° C. Calculations were made as described in the Seahorse manual and XF Seahorse Mito Stress Test kit user guide. Briefly, basal respiration was calculated with subtraction of non-mitochondrial respiration rate from the last measurement prior to first injection. Maximal respiration was calculated by subtraction of the non-mitochondrial respiration measurement from maximum measurement after FCCP injection. ATP synthesis-related OCR was obtained indirectly by measuring ATP-linked respiration in the presence of complex V inhibitor (Oligomycin). The decrease of oxygen consumption rate representing the portion of basal respiration that was used to drive ATP synthesis was calculated with subtraction of the minimum measurement after Oligomycin injection from the last measurement prior to Oligomycin injection. Spare Respiratory Capacity was equal to (maximum respiration)−(basal respiration).

[4] = system: ventricular tissue of septic mice; experiment: Mitochondrial biogenesis, fusion and fission gene expression in ventricular tissue; format: in vivo, mouse
Procedure: RNA purification and gene expression analysis—Total RNA was purified from AC16 cells or hearts using the TRIzol reagent according to the instructions of the manufacturer (Invitrogen). DNase-treated RNA was used for cDNA synthesis using the ProtoScript II First Strand cDNA Synthesis Kit (New England Biolabs). Quantitative real-time PCR was performed with the Sybr Select Master Mix (Applied Biosystems). Incorporation of the SYBR green dye into the PCR products was monitored with the Applied Biosystems StepOnePlus Real-Time PCR System. Samples were normalized against mouse 36B4 or human rps13 RNA.

[5] = system: permeabilized adult cardiomyocytes; experiment: Calcium uptake assay in permeabilized adult cardiomyocytes; format: in vivo, mouse; details: cardiomyocytes isolated 12 h after CLP, 6 h after LGM2605
Procedure: Calcium uptake assay in permeabilized adult cardiomyocytes Cardiomyocytes were isolated from mice 12 hours after CLP or sham surgery and 6 hours after LGM2605 or saline injection. Calcium uptake was performed as previously described^22 and detailed below. Before permeabilization, cardiomyocytes were washed in a Ca free buffer (120 mM NaCl, 5 mM KCL 1 mM KH2PO4, 0.2 mM MgCl2, 0.1 mM EGTA and 20 mM HEPES-NaOH, at pH 7.4) and stored on ice for at least 10 min. Cardiomyocytes were pelleted by centrifugation and transferred to an intracellular-like medium (permeabilization buffer: 120 mM KCl, 10 mM. NaCl, 1 mM KH2PO4, 20 mM, 4 HEPES-Tris, at pH 7.2, protease inhibitors (EDTA-free complete tablets, Roche Applied Science), 2 μM thapsigargin and digitonin (40 μg ml^−1)). The cell suspension supplemented with succinate (2 mM) was placed in a fluorimeter and permeabilized by gentle stirring. Fura2FF (0.5 μM) was added at 0 s, and JC-1 (800 nM) at 20 s. Fluorescence signal was monitored in a temperature-controlled (37° C.) multiwavelength-excitation dual-wavelength-emission spectrofluorometer (Delta RAM, Photon Technology International) using 490-nm excitation/535-nm emission for the JC-1 monomer. 570-nm excitation/595-nm emission for the J-aggregate of JC-1 and 340-nm/380-nm for Fura2FF. At 400 s, a single 10 μM Ca^2+ pulse was added, and changes in cytosolic [Ca^2] was monitored. […]

[6] = CLP + LGM2605 (6 hrs post-CLP), cardiomyocytes 12 hrs after surgery

## COc1cc(C[C@@H](CO[C@@H]2O[C@H](CO)[C@@H](O)[C@H](O)[C@H]2O)[C@H](CO[C@@H]2O[C@H](CO)[C@@H](O)[C@H](O)[C@H]2O)Cc2ccc(O)c(OC)c2)ccc1O [LGM2605, secoisolariciresinol diglucoside]
[1]
  adenylyl cyclase V/VI expression (AC/GAPDH ratio): restores cyclase V/VI expression pre-CLP levels
[2]; LPS 12 h with SDG/LGM2605
  number of mitochondria (Mitotracker): prevented by treatment with LGM2605
[2]; LPS 12 h with SDG/LGM2605, listed as SDG
  number of mitochondria (Mitotracker): more than compensated for this LPS-dependent drop; also recorded: restored mitochondrial abundance in vitro and in vivo
[3]; [6]
  basal respiration and oxygen consumption rate associated with ATP synthesis: increased basal respiration levels (FIG. 18B) and oxygen consumption rate associated with ATP synthesis (FIG. 18C), compared to both CLP and sham mice
  maximal respiration and respiratory spare capacity: markedly elevated by LGM2605 treatment
[3]; CLP + SDG relative to levels observed after CLP
  maximal respiration, ATP production, non-mitochondrial oxygen consumption: statistically significant increase in maximal respiration, ATP production, and non-mitochondrial oxygen consumption relative to levels observed after CLP
[3]; CLP + SDG relative to the untreated levels
  basal respiration, maximal respiration, ATP production, non-mitochondrial oxygen consumption: statistically significant increase in basal respiration, maximal respiration, ATP production, and non-mitochondrial oxygen consumption relative to the untreated levels
[3]; CLP followed by SDG treatment vs CLP and sham, listed as SDG
  oxygen consumption rate (OCR): more than compensated for that decrease; also recorded: increased oxygen consumption rate (OCR) compared to CLP alone and sham operated mice
[3]; sham, CLP, CLP + SDG
  proton leakage: no statistically significant changes in proton leakage were observed
[4]; ventricular tissue 12 hours post-CLP
  mitochondrial biogenesis markers PGC1α, PGC1β, mtTFA gene expression: None of these changes was affected by LGM2605
[4]; ventricular tissue 12 hrs after CLP
  MFN1, MFN2, DRP1, and FIS1 expression: restored the CLP-mediated changes in MFN1, MFN2, DRP1, and FIS1 expression
[5]
  mitochondrial calcium uptake: increased mitochondrial Ca^2+ uptake rate and release of Ca^2+ following CCCP administration beyond that observed for sham operated mice
[5]; listed as SDG
  mitochondrial calcium uptake: mitochondrial calcium uptake was increased
